Experimental findings from patent US10322112B2, “Compound combinations for attenuation of bacterial virulence” (priority 2016, dated 2019) are described below.

The subject of assay [1] is P. aeruginosa (PAO1). In words: Rhamnolipid assay. The class given is cell-based, Pseudomonas aeruginosa. To be noted: MOPS Glutamate and Glucose media, complete or iron/phosphate depleted, 17 h, 100 μM (compounds 1, 2, 3), 25 μM (compound 4), relative to DMSO. How it is done: (§1) A. Pyocyanin Assay Protocol. The amount of pyocyanin in P. aeruginosa culture supernatants was measured following a reported protocol (O'Loughlin et al., 2013) with modifications. A 10 mL overnight culture of P. aeruginosa PAO1 was grown for 16 h. DMSO stock solutions of test compounds (20 mM) were prepared, and 10 μL or 5 μL aliquots were added to sterile 15 mL borosilicate glass test tubes. An inoculating culture was prepared by diluting the overnight culture 1:100 into freshly prepared assay medium (see above), and 2 mL aliquots of this subculture were added to each test tube (0.5% DMSO, final). The cultures were grown for 17 h, and the final cell density measured by reading OD600. Relative pyocyanin levels were measured by first pelleting 1.5 mL of well-mixed culture at 4,000 g for 10 min, transferring 200 μL of the resulting supernatant to a clear, plastic 96-well microtiter plate, and reading absorbance at 695 nm. Media background absorbance (measured from a “no bacteria” control) was subtracted, the resulting values growth normalized by dividing by the final OD600378, and the data plotted relative to a DMSO-treated positive control. B. Rhamnolipid Assay Protocol. Rhamnolipid was quantified following a reported protocol (Koch et al., 1991) with modifications. Assay cultures were prepared and grown in an identical manner to the pyocyanin assay above. Aliquots of the final culture supernatant (1 mL) were transferred to 1 dram glass vials and extracted twice with 1 mL diethyl ether. The pooled organic fractions were evaporated to dryness, and the resulting residue reconstituted in 200 μL de-ionized water. […] After briefly cooling to room temperature, 200 μL of the resulting yellow to yellow-orange solution was transferred to a clear 96-well microtiter plate, and the absorbance at 421 nm measured. Media background absorbance (measured from a “no bacteria” control) was subtracted, the resulting values growth normalized by dividing by the final OD600, and the data plotted relative to a DMSO-treated positive control. […] The amount of elastase B in P. aeruginosa culture supernatants was measured following a reported protocol (Geske et al., 2007) with modifications. […] To quantify elastase B activity, the undigested elastin was pelleted by centrifugation of the assay plate at 1,500 g for 10 min, after which 100 μL of the supernatant was transferred to a new, clear 96-well plate, and the absorbance at 490 nm measured. Media background absorbance (measured from a “no bacteria” control) was subtracted, the resulting values growth normalized by dividing by the final OD600, and the data plotted relative to a DMSO-treated positive control.

In assay [2] the test system is P. aeruginosa (PAO1). The assay is described as follows: P. aeruginosa growth curves. The class given is cell-based, Pseudomonas aeruginosa. As to conditions: MOPS Glutamate, 100 microM compound 1. The procedure: FIGS. 2A-2D are wild-type P. aeruginosa growth curves in the presence of test compounds in various media. Related to FIGS. 3, 6A and 6B, 7A and 7B, and 12. (FIG. 2A) Growth curves in complete MOPS/Glutamate. (FIG. 2B) Growth curves in complete MOPS/Glucose. […] (FIG. 2D) Growth curves in SCFM2. P. aeruginosa (PAO1) was grown in a manner identical to the pyocyanin assay (see Experimental Procedures). At each time point, growth was measured by either reading OD600 (for MOPS media) or by serially diluting culture aliquots, plating on LB agar, and counting CFUs after overnight incubation at 37° C. (for SCFM2). Compound concentrations are 100 microM for compounds 1, 2, and 3 and 25 microM for compound 4 in all experiments unless noted otherwise. Error bars represent the standard error of at least two biological replicates (n≥2). BHL=N-butyryl L-homoserine lactone (Cayman Chemicals).
B. Bacterial Strains and Growth Conditions. Protocols for construction of genetic knockout strains are described below in Example 2. All reagents for bacterial culture were purchased from Sigma-Aldrich unless indicated otherwise. Bacteria were routinely cultured in Luria-Bertani broth (LB) at 37° C. with shaking at 200 rpm. Freezer stocks of bacterial strains were maintained at −80° C. in 1:1 LB:glycerol. Bacterial growth was routinely assessed by measuring the culture cell density according to absorbance at 600 nm (OD600341). Cell growth in simulated cystic fibrosis sputum medium (SCFM2) was determined by serially diluting assay cultures, plating on LB agar, and counting the number of colony forming units (CFU) appearing after overnight incubation at 37° C.

Assay [3] concerns P. aeruginosa (PAO1). In words: Elastase B assay. The class given is cell-based, Pseudomonas aeruginosa. As to conditions: 17 h; for elastase B production, single compound screens: MOPS Glutamate and Glucose media, complete or iron/phosphate depleted, 100 μM (compounds 1, 2, 3), relative to DMSO. How it is done: as §1
Assay [4] has as its system P. aeruginosa (PAO1). In words: Pyocyanin assay. The class given is cell-based, Pseudomonas aeruginosa. As to conditions: for pyocyanin production, single compound screens: MOPS Glutamate and Glucose media, complete or iron/phosphate depleted, 17 h, 100 μM (compounds 1, 2, 3), 25 μM (compound 4), relative to DMSO. How it is done:
A. Pyocyanin Assay Protocol. The amount of pyocyanin in P. aeruginosa culture supernatants was measured following a reported protocol (O'Loughlin et al., 2013) with modifications. A 10 mL overnight culture of P. aeruginosa PAO1 was grown for 16 h. DMSO stock solutions of test compounds (20 mM) were prepared, and 10 μL or 5 μL aliquots were added to sterile 15 mL borosilicate glass test tubes. An inoculating culture was prepared by diluting the overnight culture 1:100 into freshly prepared assay medium (see above), and 2 mL aliquots of this subculture were added to each test tube (0.5% DMSO, final). The cultures were grown for 17 h, and the final cell density measured by reading OD600. Relative pyocyanin levels were measured by first pelleting 1.5 mL of well-mixed culture at 4,000 g for 10 min, transferring 200 μL of the resulting supernatant to a clear, plastic 96-well microtiter plate, and reading absorbance at 695 nm. Media background absorbance (measured from a “no bacteria” control) was subtracted, the resulting values growth normalized by dividing by the final OD600378, and the data plotted relative to a DMSO-treated positive control. B. Rhamnolipid Assay Protocol. Rhamnolipid was quantified following a reported protocol (Koch et al., 1991) with modifications. Assay cultures were prepared and grown in an identical manner to the pyocyanin assay above. Aliquots of the final culture supernatant (1 mL) were transferred to 1 dram glass vials and extracted twice with 1 mL diethyl ether. The pooled organic fractions were evaporated to dryness, and the resulting residue reconstituted in 200 μL de-ionized water. In a 1.7 mL plastic centrifuge tube, 50 μL of this extract was diluted into 450 μL of a solution of 0.19% (w/v) orcinol in 50% (v/v) concentrated H2SO4 (or 20 μL extract into 480 μL orcinol solution for cultures grown in MOPS Glucose medium). The tubes were vortexed thoroughly to mix and incubated in an 80° C. heating block for 30 min. After briefly cooling to room temperature, 200 μL of the resulting yellow to yellow-orange solution was transferred to a clear 96-well microtiter plate, and the absorbance at 421 nm measured. Media background absorbance (measured from a “no bacteria” control) was subtracted, the resulting values growth normalized by dividing by the final OD600, and the data plotted relative to a DMSO-treated positive control. C. Elastase B Assay Protocol. The amount of elastase B in P. aeruginosa culture supernatants was measured following a reported protocol (Geske et al., 2007) with modifications. Assay cultures were prepared and grown in an identical manner to the pyocyanin assay above. Aliquots of the final culture supernatant (50 μL) were added to the wells of a clear, plastic 96-well plate. To each well, 150 μL of 0.5% (w/v) elastin-congo red conjugate (Elastin Products Co.) in Tris buffer (10 mM Tris-HCl, 1 mM CaCl2, pH 7.2) was added. The plate was sealed with a polypropylene storage mat (Costar 3080) and incubated in a 37° C. shaking incubator (200 rpm) attached to a Labquake rotator for 12 h (for experiments in SCFM2) or 24 h (for experiments in MOPS medium). To quantify elastase B activity, the undigested elastin was pelleted by centrifugation of the assay plate at 1,500 g for 10 min, after which 100 μL of the supernatant was transferred to a new, clear 96-well plate, and the absorbance at 490 nm measured. Media background absorbance (measured from a “no bacteria” control) was subtracted, the resulting values growth normalized by dividing by the final OD600, and the data plotted relative to a DMSO-treated positive control.

The next assay concerns the target QscR (Pseudomonas aeruginosa, UniProt G3XD77). The class given is cell-based. The arrangement: expressed in transfected cells; host or cells: E. coli JLD271. As to conditions: compounds at 100 mm against 15 nm OdDHL; E. coli reporter strain JLD271/pJN105Q/pSC11-Q; untreated culture = 100%; error ±10%. The text has this: Construction of pSC11-Q: A 348 bp fragment spanning the upstream region of PA1897 (¢304 to +43 relative to the PA1897 translationalstart codon) was amplified from plasmid pJL101*by using primers 5′-GAATAT GGATCC TCTCTC CGCAGA TACCTG-3′ (BamHI site underlined) SEQ ID NO:5 and 5′-GCTATT GAATTC TGAAGA TGAATA GCGCCAC-3′ (EcoRI site underlined) SEQ ID NO:6. The PCR-generated fragment was digested with EcoRI and BamHI and subsequently ligated into EcoRI/BamHI-digested pPROBE-KT to generate pPROBE-KQ2. […] CGCC-3′ (BamHI site underlined) SEQ ID NO:8. The PCR-generated fragment was digested with SalI and BamHI and subsequently ligated into SalI/BamHI-digested pSC11 to generate pSC11-Q.
E. coli reporter gene assays: Primary assays for RhlR, LasR, and QscR activity in E. coli JLD271 reporter (beta-galactosidase) strains were performed as reported by Welsh et al. 2015, with the following modifications:
For all primary and dose-response antagonism assays, the concentration of native ligand utilized was approximately equal to its EC50 value in each bacterial reporter strain. For RhlR, LasR, and QscR primary antagonism assays, synthetic ligand (100 mm) was screened against BHL (10 mm), OdDHL (2 nm), and OdDHL (15 nm), respectively. For RhlR, LasR, and QscR primary agonism assays, synthetic compound (100 mm) was screened alongside and compared to the natural ligand (900 mm BHL or 100 mm OdDHL) for the receptor. As part of the beta-galactosidase assay protocol, plates to which CPRG substrate had been added were incubated at either 25° C. (LasR assay) or 30° C. (RhlR and QscR assays) until positive control wells developed a deep red color (10 min for LasR, 30 min for RhlR, and 60 min for QscR). Dose-response reporter gene assays were performed according to these protocols by using varying concentrations of compound.

Another assay deals with T1, LasR (Pseudomonas aeruginosa, UniProt P25084).
T1 construct: expressed in transfected cells; host or cells: E. coli JLD271
T1 sequence (P25084 whole entry): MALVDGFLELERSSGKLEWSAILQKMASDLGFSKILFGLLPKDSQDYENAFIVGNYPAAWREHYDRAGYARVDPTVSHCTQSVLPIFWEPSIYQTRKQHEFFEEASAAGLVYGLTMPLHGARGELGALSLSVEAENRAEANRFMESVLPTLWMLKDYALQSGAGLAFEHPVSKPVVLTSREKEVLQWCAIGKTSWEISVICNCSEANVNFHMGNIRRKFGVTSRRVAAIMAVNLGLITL
The assay is described as follows: E. coli reporter gene primary antagonism assay, LasR. The class given is cell-based. As to conditions: compounds at 100 mm against 2 nm OdDHL; E. coli beta-galactosidase reporter strain JLD271/pJN105L/pSC11; untreated culture = 100%; negative values indicate receptor agonism; error ±10%. How it is done: Percent agonism of a given non-native inducer in a given bacterium and QS system receptor is measured with resepct to the maximum level of agonism (activation) by the native ligand of that receptor in the given bacterium. Percent antagonism is measured in competitive assays. The QS system of interest is activated to 100% with added or endogenous native ligand and the % antagonism of the non-native inducer is assessed with respect to 100% activation by the native inducer. The native ligand which induces LasR is OdDHL, which induces RhlR is BHL and which induces PqsR is PQS. As described herein and in cited references, assays for assessment of % agonism or % atangonism may be performed in E. coli systems (heterologous) or in the bacterium of interest, e.g., Pseudomonas. Dependent upon the assay system employed native ligand may be endogenously present or it may be exogenously supplied to the assay system. […] In antagonism assays using the native strains with functional QS systems, e.g., those of P. aeruginosa, endogenous native ligand is made in the system, so no native ligand is added. In native strains having one or more non-functional QS systems (mutant strains), e.g., P. aeruginosa mutants with non-functional QS systems, native ligand is added at about 10-100× the EC50 of the native ligand. In the agonism assay, native ligand is added as a control. Details of the assays are provided herein in Example 9 and in references cited in Example 9.
In general terms: A reporter such as luciferase makes a cellular process visible.

“Also recorded” adds a separate entry of the source.

Sequence of QscR (G3XD77 entry or part of it): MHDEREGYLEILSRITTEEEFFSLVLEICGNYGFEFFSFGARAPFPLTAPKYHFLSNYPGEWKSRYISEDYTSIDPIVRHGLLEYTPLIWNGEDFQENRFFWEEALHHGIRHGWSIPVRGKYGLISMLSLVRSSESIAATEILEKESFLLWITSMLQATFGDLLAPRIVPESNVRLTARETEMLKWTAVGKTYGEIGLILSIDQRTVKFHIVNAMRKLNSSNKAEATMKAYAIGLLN

`CCCCCCCCCC(=O)CC(=O)Nc1ccccc1` [compound 1]: the “rhamnolipid production, single compound screens” value (shortened to “rhamnolipid production”) in the assay with P. aeruginosa (PAO1) [1] is listed as “little to no effect”. For the same compound, the “effect on cell growth, compound 1” value in the assay on P. aeruginosa (PAO1) [2] is “no effect on cell growth”. For the same compound, the “elastase B production, single compound screens” value with P. aeruginosa (PAO1) [3] is given as “little to no effect”. In addition, the “pyocyanin production, single compound screens” value with P. aeruginosa (PAO1) [4] was “strong pyocyanin inhibition, unless phosphate concentrations were low”. In the assay on P. aeruginosa (PAO1) [4] (MOPS Glutamate with phosphate diluted 10-fold, 100 microM compound 1), the “pyocyanin production over time, low phosphate medium” value is recorded as “does not attenuate pyocyanin production; also recorded: little to no effect”. Besides, the “pyocyanin production over time, complete medium” value with P. aeruginosa (PAO1) [4] (complete MOPS Glutamate, 100 microM compound 1) is reported as “eliminated pyocyanin synthesis”.
Turning to `O=C(COc1ccc(I)cc1)N[C@H]1CCOC1=O` [compound 2], the “rhamnolipid production” value in the assay on P. aeruginosa (PAO1) [1] was “little to no effect”. The “elastase B production, single compound screens” value in the assay with P. aeruginosa (PAO1) [3] is “little to no effect”. On QscR, the “Inhibition [%] QsCR” value was 18%. For the same compound, the “Inhibition [%] LasR” value on LasR is recorded as −9%. Further, in the assay on P. aeruginosa (PAO1) [4], the “pyocyanin production, single compound screens” value was “strong pyocyanin inhibition, unless phosphate concentrations were low”. Further, the “pyocyanin production in SCFM2, single compound” value with P. aeruginosa (PAO1) [4] (SCFM2, 17 h, 100 μM compound 2 alone) was “did not attenuate pyocyanin”.
With `O=C(CSc1nc2cc([N+](=O)[O-])ccc2[nH]1)Nc1ccc(Oc2ccccc2)cc1` [compound 4, 2-[(6-nitro-1H-benzimidazol-2-yl)-sulfanyl]-N-(4-phenoxyphenyl)acetamide], in the assay with P. aeruginosa (PAO1) [1], the “rhamnolipid production” value is “failed to inhibit rhamnolipid production; also recorded: cannot inhibit rhamnolipid”. Moreover, the “elastase B production in MOPS Glutamate, single compound screen” value in the assay on P. aeruginosa (PAO1) [3] (MOPS Glutamate, 25 μM compound 4) is on record as “strong attenuation of elastase B production”. Besides, in the assay with P. aeruginosa (PAO1) [4], the “pyocyanin production, single compound screens” value is “eliminated pyocyanin synthesis under all conditions tested, even low iron and phosphate”.
